In US20260048046A1, “METHOD FOR IMPROVING GROWTH PERFORMANCE IN FEEDLOT CATTLE” (Elanco US Inc., priority 2022, published 2026):
Marks after values point to notes of the source that are not given here.

Tested on: beef feedlot cattle
Assay: 56-d study: carcass characteristics
Type: in vivo
Design: Marbling score, difference from control: scale not given here
Details: for YG 1, proportion of cattle graded / YG 2, proportion of cattle graded / YG 3, proportion of cattle graded / YG 4, proportion of cattle graded / YG 5, proportion of cattle graded: arithmetic mean; for Adjusted fat thickness / Dressing percentage / KPH fat / Ribeye Area / Yield grade / carcass weight (HCW) / Marbling score: 56 d treatment, steers, LS mean; for Marbling score: 400 Small, 500 Modest, 600 Moderate
Procedure: LUB was removed from feed at least 24 h before harvest to comply with the Food Use Authorization (FDA, 2016) granted by the FDA. Cattle were loaded for harvest shortly after collection of final pen live weights and transported to the slaughter facility at a stocking density of approximately 30 steers (i.e., half a pen of 60 steers) in one semi-trailer. The slaughter process was conducted in accordance with USDA requirements and standard slaughter site procedures. Animal/carcass identification was maintained by sequentially recording the ear tag numbers of cattle as they were slaughtered via a sequence number affixed to each carcass by trained personnel from the Beef Carcass Research Center (BCRC; West Texas A&M University, Canyon, TX) and correlating the individual ear tag number to the plant-assigned carcass ID number, which remained intact throughout the carcass data/sample collection phase. Following an industry-standard dressing procedure, each carcass was weighed for determination of HCW.
Carcass evaluation occurred following the commercial plant's standard chilling period. The carcass quality and yield grade factors, marbling score, ribeye area, and objective 12th rib fat thickness were captured objectively using the VBG2000 camera system. Additionally, adjusted 12th rib fat thickness, kidney, pelvic, and heart (KPH) fat assessment, and other defects (dark cutters, blood splash, etc.) were recorded by trained personnel (BCRC). Skeletal maturity was obtained only on carcasses that were “B” maturity or greater, otherwise, skeletal, lean, and overall maturity and lean color were not obtained.
Carcass defects (dark cutters, excessive trim) were noted by exception. The objective fat thickness was used to calculate the USDA yield grade. All carcasses were considered to be less than 30 mo of age; therefore, USDA quality grade was determined by using marbling score (USDA, 2019). The severity of the dark cutting condition was indicated by assigning the dark cutting carcasses to ⅓, ⅔, or full dark categories. Dark cutters were not excluded when determining quality grade, however, a summary of the frequency of dark cutter carcasses by treatment group is provided. Carcasses identified as excessively trimmed (greater than approximately 9.1 kg trim) were not excluded from the analysis, however, a summary of the frequency of excessively trimmed carcasses by treatment group is provided.
The label claim variable of cumulative NH3 gas emissions over the treatment period normalized by final BW (with d −59 BW as a covariate) for the period and HCW (g of gas kg^−1 of BW or g of gas kg^−1 HCW) was determined by utilizing NH3 gas emissions equations developed from the LUB clinical effectiveness study (FDA-FOI, 2018) and validated using animals of similar BW as described by Brown et al. (2019). The pen was the experimental unit for each outcome. Differences were deemed significant using a two-sided test at Ptrt≤0.05, however, a less stringent significance threshold of Ptrt≤0.10 was used for abnormal health observations. Fixed effect of treatment and random effects of time replicate and block within time replicate were included in the model. Discrete variables were analyzed using a generalized linear mixed model, Proc GLIMMIX SAS version 9.4 unless there were convergence problems due to sparseness of data. A binomial distribution was assumed and a logit link used in the analysis. Contrasts were constructed between the CON group and each non-CON dosage group, and differences were deemed significant at Pdose≤0.05. If convergence problems arose due to sparseness of data, Fisher's exact test (binomial data; Proc FREQ in SAS) or Wilcoxon's rank-sum test (categorical data; Proc NARIWAY in SAS) was used to evaluate differences between the CON group and the non-CON dosage groups. In all cases except for health observations, differences were deemed significant at Ptrt≤0.05 for these primary discrete variables. […]

[1] = 3.5 and 5.5 mg kg^−1 LUB groups, 56 d, Ptrt≤0.05
[2] = all LUB groups, 56 d, Ptrt≤0.05

## CC(C)(Cc1ccc(Oc2ncccc2C#N)cc1)NC[C@H](O)COc1ccccc1-c1cccs1 [LUB, 2-{4-[2-({(2S)-2-Hydroxy-3-[2-(2-thienyl)phenoxy]propyl}amino)-2-methylpropyl]phenoxy}nicotinonitrile]
1.5 mg kg^−1 LUB group, 56 d
  Frequency of dark cutter carcasses: 0.6%
  Frequency of excessively trimmed carcasses: 1.4%
1.5 mg·kg^−1 DM LUB, 56 d
  YG 1, proportion of cattle graded: 5.4%
  YG 2, proportion of cattle graded: 25.8^x %
  YG 3, proportion of cattle graded: 49.0%
  YG 4, proportion of cattle graded: 17.1^y %
  YG 5, proportion of cattle graded: 2.7%
1.5 mg·kg^−1 vs. control, 56 d
  KPH fat, difference from control: 0.01%
  Marbling score, difference from control: −13.0
  Marbling score, percent change from Control: −2.8%
  Ribeye area, difference from control: 3.3 cm^2
  Ribeye area, percent change from Control: 3.5%
  carcass weight (HCW), difference from control: 11.3 kg
  carcass weight (HCW), percent change from Control: 2.8%
3.5 mg kg^−1 LUB group, 56 d
  Frequency of dark cutter carcasses: 0.3%
  Frequency of excessively trimmed carcasses: 1.8%
3.5 mg·kg^−1 DM LUB, 56 d
  YG 1, proportion of cattle graded: 5.5%
  YG 2, proportion of cattle graded: 31.5^y %
  YG 3, proportion of cattle graded: 44.0%
  YG 4, proportion of cattle graded: 17.3^y %
  YG 5, proportion of cattle graded: 1.7%
3.5 mg·kg^−1 vs. control, 56 d
  KPH fat, difference from control: 0.01%
  Marbling score, difference from control: −23.0
  Marbling score, percent change from Control: −4.9%
  Ribeye area, difference from control: 5.4 cm^2
  Ribeye area, percent change from Control: 5.8%
  carcass weight (HCW), difference from control: 15.9 kg
  carcass weight (HCW), percent change from Control: 3.9%
5.5 mg kg^−1 LUB group, 56 d
  Frequency of dark cutter carcasses: 0.1%
  Frequency of excessively trimmed carcasses: 1.4%
5.5 mg·kg^−1 DM LUB, 56 d
  YG 1, proportion of cattle graded: 6.2%
  YG 2, proportion of cattle graded: 31.6^y %
  YG 3, proportion of cattle graded: 44.2%
  YG 4, proportion of cattle graded: 16.0^y %
  YG 5, proportion of cattle graded: 2.0%
5.5 mg·kg^−1 vs. control, 56 d
  KPH fat, difference from control: 0.03%
  Marbling score, difference from control: −27.0
  Marbling score, percent change from Control: −5.7%
  Ribeye area, difference from control: 5.7 cm^2
  Ribeye area, percent change from Control: 6.1%
  carcass weight (HCW), difference from control: 17.1 kg
  carcass weight (HCW), percent change from Control: 4.2%
[1]
  Proportion of carcasses grading Select compared to CON: increased
  Yield grade 2 compared to CON: increased
LUB 1.5 mg·kg^−1 DM
  Adjusted fat thickness: 1.53 cm
  Dressing percentage: 61.8%
  KPH fat: 2.12%
  Ribeye Area: 97.0 cm^2
  Yield grade: 3.14
  carcass weight (HCW): 418.3 kg
  Marbling score: 460
LUB 3.5 mg·kg^−1 DM
  Adjusted fat thickness: 1.48 cm
  Dressing percentage: 62.1%
  KPH fat: 2.12%
  Ribeye Area: 99.1 cm^2
  Yield grade: 3.02
  carcass weight (HCW): 423.9 kg
  Marbling score: 450
LUB 5.5 mg·kg^−1 DM
  Adjusted fat thickness: 1.48 cm
  Dressing percentage: 62.3%
  KPH fat: 2.14%
  Ribeye Area: 99.4 cm^2
  Yield grade: 3.01
  carcass weight (HCW): 425.1 kg
[2]
  Proportion of carcasses grading Upper 2/3 Choice compared to CON: decreased
  Yield grade 4 compared to CON: decreased
